Patent publication US20240122990A1, “COMPOSITIONS AND METHODS FOR CARDIOMYOCYTE TRANSPLANTATION” (UNIVERSITY OF WASHINGTON, priority 2021, published 2024)

How the values were obtained:
[1] = system: riPSC-CM cardiomyocyte grafts; experiment: Allogeneic rhesus iPSC-CM transplantation into MHC-mismatched rhesus recipients, histopathological immune rejection of the graft; assay type: in vivo, rhesus macaque (Macaca mulatta); details: low-dose subcutaneous TAC alone, trough 5-10 ng/mL; 8 weeks post-transplant; 200×10^6 riPSC-CMs
From the text: To identify a minimal, steroid-sparing immunosuppression regimen for first-in-human allogeneic transplantation, a non-human primate (NHP) model was developed where rhesus iPSC-CM are transplanted into normal or infarcted hearts of MHC-mismatched recipients. Allogeneic iPSCs derived from rhesus macaque (Macaca mulatta) were differentiated into a highly enriched population of cardiomyocytes (riPSC-CMs). 200×10^6 riPSC-CMs were transplanted into 11 MHC-mismatched rhesus recipients. The primary study endpoint was the degree of histopathological immune rejection. […] Subsequent studies focused on 8-week engraftment, with promising regimens studied further out to 16 weeks.

T-cell activation = details: relative to abatacept; cited from earlier work

Compound | degree of histopathological immune rejection of the graft [1] | increase in the ability to inhibit T-cell activation in vitro compared to abatacept (T-cell activation)
C=CC[C@@H]1/C=C(\C)C[C@H](C)C[C@H](OC)[C@H]2O[C@@](O)(C(=O)C(=O)N3CCCC[C@H]3C(=O)O[C@H](/C(C)=C/[C@@H]3CC[C@@H](O)[C@H](OC)C3)[C@H](C)[C@@H](O)CC1=O)[C@H](C)C[C@@H]2OC [tacrolimus] | moderate to severe rejection | 
Belatacept: derivative of abatacept comprising two amino acid alterations in the CD80/86 binding portion |  | 10 fold
